Test results taken from article PMC5428663, “Identification of small molecule inhibitors of Interleukin-18” (Scientific Reports, 2017).
pEC50, pIC50, pKi: −log10 of the molar value.

What was measured:
[1] = system: hIL-18 induced IFN-γ production in human KG-1 cells; assay: IFN-γ bioassay (hIL-18 induced IFN-γ production in KG-1 cells); type: cell-based; conditions: for inhibition of hIL-18 activities (IFN-γ secretion): KG-1 cells, 1 uM inhibitor, increasing hIL-18 (Fig. 4)
[2] = target: T1, hIL-18:ectvIL-18BP complex (Homo sapiens, UniProt Q14116); assay: biochemical; type: binding, human; ectromelia virus; conditions: for pIC50: 5% DMSO, read-out: IC50, inhibition of hIL-18:ectvIL-18BP complex formation
T1 construct: Mature human IL-18 was cloned into a modified pET vector containing a C-terminal 6x His tag; 6x His (C); made in house; host or cells: E. coli BL21 gold (DE3) with biotin ligase for hIL-18; E. coli BL21 (DE3) Rosetta-Gami 2 for MBP-ectvIL-18BP
T1 sequence (Q14116 37-193): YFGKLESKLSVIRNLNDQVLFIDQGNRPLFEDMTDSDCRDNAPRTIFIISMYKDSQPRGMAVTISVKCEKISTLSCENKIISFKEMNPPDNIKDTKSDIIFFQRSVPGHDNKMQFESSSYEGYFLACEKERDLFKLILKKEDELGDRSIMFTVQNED

In the case of O=C(Nc1cccc(-c2nc3ccccc3[nH]2)c1)c1ccc(C(=O)Nc2cccc(-c3nc4ccccc4[nH]3)c2)cc1 [NSC61610, 1-N,4-N-bis[3-(1H-benzimidazol-2-yl)phenyl]benzene-1,4-dicarboxamide], the “inhibition of hIL-18 activities (IFN-γ secretion)” value (“inhibition of hIL-18 activities” for short) [1] was “small inhibitory effect”, the pKi [2] was 6.70 and the “fold difference of calculated Ki (ELISA) vs predicted Autodock Ki” value [2] was “approximately 2 fold”. It also gave a pIC50 [2] of 5.22.
For N#Cc1ccc(NC(=O)Nc2ccc(Oc3ccc(NC(=O)Nc4ccc(C#N)cc4)cc3)cc2)cc1 [NSC80734, 1-(4-cyanophenyl)-3-[4-[4-[(4-cyanophenyl)carbamoylamino]phenoxy]phenyl]urea], the pEC50 ([1]; Homo sapiens, KG-1 cells 1 × 10^6 cells ml^−1, constant hIL-18, 24 hr, read-out: EC50, inhibition of hIL-18 induced IFN-γ production) was ~6.60, the “inhibition of hIL-18 activities” value [1] was “best inhibition” and the pKi [2] was 5.74. For the same compound, the “fold difference of calculated Ki (ELISA) vs predicted Autodock Ki” value [2] was “approximately 4 fold” and the pIC50 [2] was 4.28.
CCOC(=O)c1ccc(Nc2sc(C(=O)c3cccc([N+](=O)[O-])c3)c(N)c2C#N)cc1 [NSC201631, ethyl 4-[[4-amino-3-cyano-5-(3-nitrobenzoyl)thiophen-2-yl]amino]benzoate] was tested, and the “inhibition of hIL-18 activities” value [1] was “did not inhibit hIL-18 activities”, the pKi [2] was 5.80 and the “fold difference of calculated Ki (ELISA) vs predicted Autodock Ki” value [2] was “approximately 2 fold”. The pIC50 [2] was 4.36.
